Patent US5461046A, “1-,2-,3-,4-,5-,6-,7-,8-, and/or 9-substituted dibenzoxazepine compounds, pharmaceutical compositions and methods for treating pain” (G. D. Searle & Co., priority 1993, dated 1995)
Where two headings read alike, the source gives them in different places.

Tests used:
[1] = target: T1, prostaglandin E2-induced contractions of segments of guinea pig ileum (Cavia porcellus, UniProt A0A286XHJ6); test: Prostaglandin (PGE) Antagonism Assay in guinea pig ileum; details: initial concentration 3 micromolar; estimated pA2 (slope -1.0 assumed) or Schild plot pA2
T1 construct: The ilea were then quickly removed from the guinea pigs; from tissue; host or cells: ileum segments of male albino guinea pigs
T1 sequence (A0A286XHJ6 1-405): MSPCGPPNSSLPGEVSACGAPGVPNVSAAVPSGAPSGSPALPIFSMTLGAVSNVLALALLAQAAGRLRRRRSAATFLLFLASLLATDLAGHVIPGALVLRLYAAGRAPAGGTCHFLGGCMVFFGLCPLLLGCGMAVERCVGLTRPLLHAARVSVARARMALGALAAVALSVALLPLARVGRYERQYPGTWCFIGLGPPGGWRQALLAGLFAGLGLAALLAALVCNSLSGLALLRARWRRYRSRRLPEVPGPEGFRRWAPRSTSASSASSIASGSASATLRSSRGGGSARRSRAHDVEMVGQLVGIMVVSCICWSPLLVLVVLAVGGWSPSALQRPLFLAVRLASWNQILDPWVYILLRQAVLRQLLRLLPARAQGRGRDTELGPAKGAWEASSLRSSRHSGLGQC
Protocol: In order to determine the effectiveness of several of the compounds of the present invention ("test compounds") as prostaglandin E2 antagonists,a prostaglandin antagonism assay was conducted, as described below, to determine the ability of these compounds to inhibit prostaglandin E2 -induced contractions of segments of guinea pig ileum.
Male albino guinea pigs weighing 200 to 500 grams were sacrificed by cervical dislocation. The ilea were then quickly removed from the guinea pigs and placed in a modified Tyrode solution, a solution which is known to those skilled in the art, containing one-half of the usual amount of magnesium ions.
Segments of ileum about 2 cm long were then cut and mounted in a 10-mL tissue bath containing the modified Tyrode solution. The solution was maintained at 37° C. and aerated with a gaseous mixture of 95% oxygen and 5% carbon dioxide. Data for a control prostaglandin E2 dose response curve plotting concentration of prostaglandin E2 versus the intensity of contractions, detected isotonically, was then obtained by experimentally adjusting the dose of the prostaglandin E2 being injected into the tissue bath, in a manner known by those of skill in the art.
Solutions or suspensions containing an initial concentration (3 micromolar) of a test compound in modified Tyrode solution ("test solutions/suspensions") were then separately substituted for the control bath solution. Each test solution/suspension was then kept in constant contact with the ileum tissue, except for brief periods to drain the bath in preparation for rinsing with fresh test solution/suspension. A second prostaglandin E2 dose response curve was then generated for prostaglandin E2 in the presence of a test compound.
A dose ratio of EC50 doses was then calculated from the results of each test in a manner known by those of skill in the art. A test compound was determined to be "active" if the initial concentration used yielded at least a two-fold shift (dose ratio greater than or equal to 2) in the dose response curve for prostaglandin E2.
The compounds of the present invention which were tested in this assay, and for which results are presented in Table 2, correspond to the particular examples specified in Table 2.

[2] = test system: phenylbenzoquinone (PBQ)-induced writhing in mice; test: Writhing Assay (phenylbenzoquinone-induced writhing, analgesia); format: in vivo, Charles River male albino mice; details: Mus musculus, 25 min, 25 min before PBQ i.p., number of mice out of ten with analgesia
Description: The Writhing Assay is one of the most widely-used experimental procedures for measuring the analgesic activity of different narcotic and nonnarcotic analgesic agents, and involves the continuous, chemically-induced pain of visceral origin to an animal, such as a mouse or rat. [Gyires et al., Arch. int. Pharmacodyn, 267, 131-140 (1984); C. Vander Wende et al., Fed. Proc., 15, 494 (1956); Koster et al., Fed. Proc., 18, 412 (1959); and Witken et al., J. Pharmacol. exp. Ther., 133, 400-408 (1961).] Chemicals which may be used to induce this pain include phenylbenzoquinone (PBQ) and acetic acid. As a result of the chemical irritation to the animal, a characteristic stretching and writhing of the animal (dorsiflexion of the animal's back, extension of its hindlimbs and the strong contraction of its abdominal musculature) will generally occur. […] Drugs which reduce the number of writhes of the animal appear to restore the normal nociceptive threshold of the animal.
Charles River male albino mice, weighing 20 to 30 grams were used in this assay.
Twenty-five minutes after subcutaneous or intragastric administration to ten mice of 30 mg per kilogram of body weight of a compound of the present invention ("test compound"), […] per 10 g of body weight of a 0.025% w/v solution of PBQ was injected intraperitoneally into each mouse. Ten mice which were given saline in place of a test compound of the invention were used as a control group.
Five minutes later, each mouse was individually placed into a glass beaker for observation, and the number of writhes occurring during the following ten-minute period was counted.
A test compound was considered to have produced analgesia in a mouse if, in accordance with the conditions set forth above, and under the test criteria employed for this assay, after the administration of 30 mg per kilogram of body weight of a compound of the present invention to the mouse, the number of writhes elicited by a mouse injected with PBQ was equal to, or less than, one-half the median number of writhes recorded for the saline-treated control group of mice that day, as described by Taber in "Predictive Value of Analgesic Assays in Mice and Rats," Advances in Biochemical Psychopharmacology, 8, 191 (1974).
The results for the particular compounds of the present invention analyzed in this assay, and discussed in the examples identified below which correspond thereto, are presented in Table 2 hereinbelow under the heading "WRITHING ASSAY." The fractions indicate the number of mice out of ten in which a test compound produced analgesia.

[3] = ip, 30 mg per kg i.g., read-out: WRITHING ASSAY Number Out of Ten I.G. (converted)
[4] = sc, 30 mg per kg s.c., read-out: WRITHING ASSAY Number Out of Ten S.C.

## CCS(=O)(=O)CCC(=O)NNC(=O)N1Cc2ccccc2Oc2ccc(C(=O)OC)cc21 [Example 1, Dibenz [b,f][1,4]oxazepine-8,10(11H)dicarboxylic acid, 8-methyl ester, 10-[2-[3-(ethylsulfonyl)-1-oxopropyl]hydrazide]]
[1]
  Kb: 2880 nM
[2]; [3]
  responders at 30 mg/kg: 30%
[2]; [4]
  responders at 30 mg/kg: 50%

## CCS(=O)(=O)CCC(=O)NNC(=O)N1Cc2ccccc2Oc2cc(C(=O)OC)ccc21 [Example 2, Dibenz[b,f][1,4]oxazepine-7,10(11H) dicarboxylic acid, 7-methyl ester, 10-[2-[3-(ethylsulfonyl)-1-oxopropyl]hydrazide]]
[1]
  Kb: 2000 nM
[2]; [3]
  responders at 30 mg/kg: 33.3%
[2]; [4]
  responders at 30 mg/kg: 30%

## CCS(=O)(=O)CCC(=O)NNC(=O)N1Cc2ccccc2Oc2ccc(C(=O)OC(C)(C)C)cc21 [Example 3, Dibenz[b,f][1,4]oxazepine-8,10(11H)-dicarboxylic acid, 8-(1,1-dimethylethyl) ester, 10-[2-[3-(ethylsulfonyl)-1-oxopropyl]hydrazide]]
[1]
  Kb: 1780 nM
[2]; [3]
  responders at 30 mg/kg: 40%
[2]; [4]
  responders at 30 mg/kg: 30%

## CCS(=O)(=O)CCC(=O)NNC(=O)N1Cc2ccccc2Oc2ccc(C(=O)O)cc21 [Example 4, Dibenz[b,f][1,4]oxazepine-8,10(11H)-dicarboxylic acid, 10-[2-[3-(ethylsulfonyl)-1-oxopropyl]hydrazide]]
[2]; [3]
  responders at 30 mg/kg: 30%
[2]; [4]
  responders at 30 mg/kg: 40%

## CCS(=O)(=O)CCC(=O)NNC(=O)N1Cc2ccccc2Oc2cc(C(=O)OC(C)(C)C)ccc21 [Example 5, Dibenz[b,f][1,4]oxazepine-7,10(11H)-dicarboxylic acid, 7-(1,1-dimethylethyl) ester, 10-[2-[3-(ethylsulfonyl)-1-oxopropyl]hydrazide]]
[1]
  Kb: 1170 nM
[2]; [3]
  responders at 30 mg/kg: 20%
[2]; [4]
  responders at 30 mg/kg: 30%

## CCS(=O)(=O)CCC(=O)NNC(=O)N1Cc2ccccc2Oc2cc(C(=O)O)ccc21 [Example 6, Dibenz[b,f][1,4]oxazepine-7,10(11H)-dicarboxylic acid, 10-[2-[3-(ethylsulfonyl)-1-oxopropyl]hydrazide]]
[1]
  Kb: 2630 nM
[2]; [3]
  responders at 30 mg/kg: 40%
[2]; [4]
  responders at 30 mg/kg: 20%

## CCS(=O)(=O)CCC(=O)NNC(=O)N1Cc2ccccc2Oc2ccc(F)cc21 [Example 7, 8-fluorodibenz[b,f][1,4]oxazepine-10(11H)-carboxylic acid, 2-[3-(ethylsulfonyl)-1-oxopropyl]hydrazide]
[2]; [3]
  responders at 30 mg/kg: 40%
[2]; [4]
  responders at 30 mg/kg: 60%

## CCS(=O)(=O)CCC(=O)NNC(=O)N1Cc2cc(Cl)ccc2Oc2ccccc21 [Example 8, 2-chlorodibenz[b,f][1,4]oxazepine-10(11H)-carboxylic acid, 2-[3-(ethylsulfonyl)-1-oxopropyl]hydrazide]
[2]; [3]
  responders at 30 mg/kg: 60%
[2]; [4]
  responders at 30 mg/kg: 60%

## CCS(=O)(=O)CCC(=O)NNC(=O)N1Cc2cc(Cl)ccc2Oc2ccc(Cl)cc21 [Example 9, 2,8-dichlorodibenz[b,f][1,4]oxazepine-10(11H)-carboxylic acid, 2-[3-(ethylsulfonyl)-1-oxopropyl]hydrazide]
[1]
  Kb: 1580 nM
[2]; [3]
  responders at 30 mg/kg: 40%
[2]; [4]
  responders at 30 mg/kg: 30%

## CCS(=O)(=O)CCC(=O)NNC(=O)N1Cc2ccccc2Oc2ccc([N+](=O)[O-])cc21 [Example 10, 8-nitrodibenz[b,f][1,4]oxazepine-10(11H)-carboxylic acid, 2-[3-(ethylsulfonyl)-1-oxopropyl]hydrazide]
[1]
  Kb: 2880 nM
[2]; [3]
  responders at 30 mg/kg: 40%
[2]; [4]
  responders at 30 mg/kg: 40%

## CCS(=O)(=O)CCC(=O)NNC(=O)N1Cc2ccccc2Oc2ccc(C#N)cc21 [Example 11, 8-cyanodibenz[b,f][1,4]oxazepine-10(11H)-carboxylic acid, 2-[3-(ethylsulfonyl)-1-oxopropyl]hydrazide]
[2]; [3]
  responders at 30 mg/kg: 55.6%
[2]; [4]
  responders at 30 mg/kg: 50%

## CCS(=O)(=O)CCC(=O)NNC(=O)N1Cc2ccccc2Oc2c(Cl)cccc21 [Example 12, 6-chlorodibenz[b,f][1,4]oxazepine-10(11H)-carboxylic acid, 2-[3-(ethylsulfonyl)-1-oxopropyl]hydrazide]
[1]
  Kb: 1150 nM
[2]; [3]
  responders at 30 mg/kg: 30%
[2]; [4]
  responders at 30 mg/kg: 40%

## CCS(=O)(=O)CCC(=O)NNC(=O)N1Cc2ccccc2Oc2ccc(N)cc21 [Example 13, 8-aminodibenz[b,f][1,4]oxazepine-10(11H)-carboxylic acid, 2-[3-(ethylsulfonyl)-1-oxopropyl]hydrazide]
[1]
  Kb: 2820 nM
[2]; [3]
  responders at 30 mg/kg: 40%
[2]; [4]
  responders at 30 mg/kg: 40%

## CCS(=O)(=O)CCC(=O)NNC(=O)N1Cc2ccccc2Oc2ccc(NS(C)(=O)=O)cc21 [Example 14, 8-[(methylsulfonyl)amino]dibenz[b,f][1,4]-oxazepine-10(11H)-carboxylic acid, 2-[3-(ethylsulfonyl)-1-oxopropyl]hydrazide]
[2]; [3]
  responders at 30 mg/kg: 60%
[2]; [4]
  responders at 30 mg/kg: 60%

## CCN(CC)c1ccc2c(c1)N(C(=O)NNC(=O)CCS(=O)(=O)CC)Cc1ccccc1O2 [Example 15, 8-(diethylamino)dibenz[b,f][1,4]oxazepine-10(11H)-carboxylic acid, 2-[3-(ethylsulfonyl)-1-oxopropyl]hydrazide]
[1]
  Kb: 708 nM
[2]; [3]
  responders at 30 mg/kg: 30%
[2]; [4]
  responders at 30 mg/kg: 10%

## CCS(=O)(=O)CCC(=O)NNC(=O)N1Cc2ccccc2Oc2ccc(OC)cc21 [Example 16, 8-methoxydibenz[b,f][1,4]oxazepine-10(11H)-carboxylic acid, 2-[3-(ethylsulfonyl)-1-oxopropyl]hydrazide]
[1]
  Kb: 2000 nM
[2]; [3]
  responders at 30 mg/kg: 60%
[2]; [4]
  responders at 30 mg/kg: 20%

## CCS(=O)(=O)CCC(=O)NNC(=O)N1Cc2ccccc2Sc2ccc(Cl)cc21 [Example 22, 8-chloro-10,11-dihydrodibenzo[b,f][1,4]thiazepine-10-(11H) carboxylic acid, 2-[3-(ethysulfonyl)-1-oxopropyl]hydrazide]
[2]; [3]
  responders at 30 mg/kg: 60%
[2]; [4]
  responders at 30 mg/kg: 30%

## CCS(=O)(=O)CCC(=O)NNC(=O)N1Cc2ccccc2S(=O)(=O)c2ccc(Cl)cc21 [Example 23, 8-chloro-10,11-dihydrodibenzo[b,f][1,4]thiazepine-10(11H) carboxylic acid, 2-[3-(ethylsulfonyl)-1-oxopropyl]hydrazide, 5,5-dioxide]
[2]; [3]
  responders at 30 mg/kg: 30%
[2]; [4]
  responders at 30 mg/kg: 70%
